Consider 15 compounds from PubChem BioAssay (NCI).

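Each compound was tested at five concentrations against cells in 96-well plates for 48 hours. GI50 is the concentration that inhibits growth by half. TGI marks complete inhibition of growth.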

Among the test systems are NCI-H460 lung; KM12 colon; HCT-116 colon; K-562 leukemia; ACHN renal; HOP-62 NSCLC; A498 renal; OVCAR-3 ovarian; MALME-3M melanoma; NCI-H522 lung.
What all share (experiment): DTP human tumour cell line panel, 48 h

In the case of `O=C1/C(=C/c2cccc3ccccc23)CCc2ccc([N+](=O)[O-])cc21`, the TGI (usually the concentration at which net growth stops) is more than 100 µM in the test on NCI-H460 lung; more than 100 µM in the test with KM12 colon; 71 µM in the test on HCT-116 colon; more than 100 µM with K-562 leukemia; more than 100 µM in the test with ACHN renal; more than 100 µM in the test with HOP-62 NSCLC. Besides, the TGI in the test with A498 renal was more than 100 µM; with OVCAR-3 ovarian it was 12.7 µM; in the test on MALME-3M melanoma it was more than 100 µM.

As to `C=C1CC(C)(c2cccc(Nc3nc4ccccc4c4occc34)c2)OC1=O` (stereo not given), the TGI in the test with NCI-H460 lung is 33.8 µM; in the test with KM12 colon, 43.8 µM; in the test with HCT-116 colon, 3.1 µM; in the test with ACHN renal it was 19.6 µM; in the test on HOP-62 NSCLC, 25.9 µM; in the test on A498 renal, 32.1 µM. Further, the results for the TGI in the test on OVCAR-3 ovarian and in the test on MALME-3M melanoma were 17.5 µM and 39.1 µM, respectively.

`O=C(c1ccc(Cl)cc1)N1CCN=C1c1cc2ccccc2c2ccccc12`: the TGI was found to be 24.9 µM in the test with NCI-H460 lung; 30.6 µM with KM12 colon; 28.1 µM in the test on HCT-116 colon; 95.8 µM in the test on K-562 leukemia; 31.2 µM in the test on ACHN renal; 33.3 µM in the test with HOP-62 NSCLC. Also, the TGI is 28.9 µM with A498 renal, 35.3 µM with OVCAR-3 ovarian and 32.5 µM with MALME-3M melanoma.

On to `Cc1nc(Nc2ccccc2Cl)sc1C(=O)CC(=O)C(N)=O`, for which the TGI was more than 100 µM in the test with NCI-H460 lung; more than 100 µM with KM12 colon; more than 100 µM in the test with HCT-116 colon; more than 100 µM in the test on K-562 leukemia; more than 100 µM with ACHN renal; 6.79 µM in the test with NCI-H522 lung. For the same compound, the values for the TGI with HOP-62 NSCLC, in the test on A498 renal and in the test on OVCAR-3 ovarian were more than 100 µM, 66.7 µM and more than 100 µM, respectively.

For the compound `S=C1SC(=Nc2ccccc2)C(=Nc2ccccc2)N1c1ccc2ccccc2c1`, the TGI with KM12 colon, in the test with HCT-116 colon, in the test on K-562 leukemia, in the test on NCI-H522 lung, with HOP-62 NSCLC and in the test with A498 renal was more than 100 µM in each case. Also, the total growth inhibition concentration (TGI) in the test with OVCAR-3 ovarian and in the test with MALME-3M melanoma was more than 100 µM throughout.

Take `Clc1ccc(C2=CCN3CC=C(c4ccc(Cl)cc4)C23)cc1`: the TGI with NCI-H460 lung came out at 22.4 µM; in the test with KM12 colon, 19.2 µM; in the test on HCT-116 colon it was 19.2 µM; in the test on K-562 leukemia it was 45.2 µM; with ACHN renal, 27 µM; with NCI-H522 lung, 22.8 µM. Also, the figures for the TGI in the test on HOP-62 NSCLC, with OVCAR-3 ovarian and in the test on MALME-3M melanoma were 26.7 µM, 25.1 µM and 27.3 µM, respectively.

In the case of `CCN(CC)C(=O)Cn1c2c(c3ccccc31)CCCC2`, the concentration for total growth inhibition (TGI) in the test with NCI-H460 lung, in the test on HCT-116 colon, in the test on K-562 leukemia, in the test with ACHN renal, with HOP-62 NSCLC and in the test on A498 renal was more than 100 µM in each case. The same compound returned a TGI in the test on MALME-3M melanoma of more than 100 µM.

`CC1(C)Oc2ccc3c(=O)cc(-c4ccccc4)oc3c2C1C(=O)O` (stereo not given): the TGI in the test on HCT-116 colon, in the test with K-562 leukemia, in the test on NCI-H522 lung, with HOP-62 NSCLC, in the test with A498 renal and with OVCAR-3 ovarian was more than 100 µM each time. The TGI in the test with MALME-3M melanoma was more than 100 µM.

On to `Cc1nc(-c2cc3ccccc3oc2=O)cs1`, for which the TGI in the test on NCI-H460 lung, in the test with KM12 colon, in the test with HCT-116 colon, in the test with K-562 leukemia, in the test on ACHN renal and in the test on NCI-H522 lung was more than 100 µM each time. For the same compound, the TGI with HOP-62 NSCLC is 42 µM; with MALME-3M melanoma, more than 100 µM.

For the compound `COc1ccc(C(=O)/C=C/c2cc(-c3cc(OC)c(OC)c(OC)c3)n[nH]2)cc1`, the GI50 (usually the concentration that inhibits growth by half) is 1.72 µM in the test on NCI-H460 lung; 1.56 µM in the test with KM12 colon; 1.73 µM with HCT-116 colon; 1.96 µM with ACHN renal; 1.47 µM with NCI-H522 lung; 1.76 µM with HOP-62 NSCLC. The GI50 in the test with OVCAR-3 ovarian was 1.74 µM. For the same compound, the TGI is 3.75 µM with NCI-H460 lung; 3.06 µM in the test with KM12 colon; 5.86 µM with HCT-116 colon; 3.63 µM in the test with ACHN renal; 3.2 µM with NCI-H522 lung; 3.77 µM with HOP-62 NSCLC. In the test on OVCAR-3 ovarian, the TGI was determined as 3.56 µM.

Regarding `O=[N+]([O-])/C(C(Cl)=C(Cl)Cl)=C(/Nc1cccc2cccnc12)n1nnc2ccccc21`, the TGI is more than 100 µM in the test with NCI-H460 lung; 29.5 µM in the test with KM12 colon; more than 100 µM with HCT-116 colon; more than 100 µM in the test on K-562 leukemia; 49.8 µM with ACHN renal; 37.5 µM in the test with HOP-62 NSCLC. Besides, the TGI in the test on OVCAR-3 ovarian came to 23.7 µM; with MALME-3M melanoma it was 19.7 µM.

Take `COc1cc(Oc2nc3cc(F)c(F)cc3nc2-c2ccccc2)cc(OC)c1OC`: the concentration for total growth inhibition (TGI) with NCI-H460 lung, in the test with KM12 colon, in the test with HCT-116 colon, in the test on ACHN renal, with NCI-H522 lung and in the test on HOP-62 NSCLC was more than 100 µM each time. Also, the TGI with A498 renal is more than 100 µM; in the test with OVCAR-3 ovarian, more than 100 µM; in the test with MALME-3M melanoma, 96.9 µM.

`COc1ccc2cc(C(C)C(=O)N3C(=O)OCC3(C)C)ccc2c1` (stereo not given): the TGI with NCI-H460 lung, in the test on HCT-116 colon, in the test on K-562 leukemia, in the test on ACHN renal, with HOP-62 NSCLC and with A498 renal was more than 100 µM in each case. For the same compound, the TGI in the test with OVCAR-3 ovarian and in the test with MALME-3M melanoma was more than 100 µM in each case.

As to `CC(C)(C)OC(=O)c1ccc(NCC2=C(Br)C(=O)C=CC2=O)cc1`, the TGI with NCI-H460 lung is more than 83.6 µM; in the test with KM12 colon, more than 100 µM; with HCT-116 colon, 35.2 µM; in the test with K-562 leukemia, more than 58 µM; in the test on ACHN renal, 33.6 µM; with NCI-H522 lung, 13 µM. Also, the TGI in the test on HOP-62 NSCLC was more than 100 µM; in the test with OVCAR-3 ovarian, 27.7 µM; with MALME-3M melanoma, 30.6 µM.

In the case of `CC(=O)C(C)(C)CCC(C)(C)C(C)=O`, the TGI in the test on NCI-H460 lung, in the test with KM12 colon, with HCT-116 colon, with K-562 leukemia, in the test with ACHN renal and in the test on NCI-H522 lung was more than 100 µM throughout. For the same compound, the concentration for total growth inhibition (TGI) with HOP-62 NSCLC and in the test on MALME-3M melanoma was more than 100 µM each time.
